The text below walks through data of paper PMC9112332, “Structure-Based Design of α-Substituted Mercaptoacetamides as Inhibitors of the Virulence Factor LasB from Pseudomonas aeruginosa” (ACS Infectious Diseases, 2022).

In data set [1] the target is T1, LasB (Pseudomonas aeruginosa, UniProt Q02RJ6). To be noted: Figure 1; read-out: IC50 (reported LasB inhibitors, Figure 1); cited from earlier work.
Data set [2] has as its target T1, LasB. Nature of the data set: LasB inhibition assay (FRET-based, in vitro). To be noted: 0.3 nM pure LasB.
Protocol: LasB Inhibition Assay. The purification of LasB from P. aeruginosa P14 supernatant as well
as the subsequent performance of the FRET-based in vitro inhibition assay was performed as
described previously.1 All samples were run in duplicate for each condition, and experiments
were performed independently at least twice.

T1 sequence (Q02RJ6 198-498): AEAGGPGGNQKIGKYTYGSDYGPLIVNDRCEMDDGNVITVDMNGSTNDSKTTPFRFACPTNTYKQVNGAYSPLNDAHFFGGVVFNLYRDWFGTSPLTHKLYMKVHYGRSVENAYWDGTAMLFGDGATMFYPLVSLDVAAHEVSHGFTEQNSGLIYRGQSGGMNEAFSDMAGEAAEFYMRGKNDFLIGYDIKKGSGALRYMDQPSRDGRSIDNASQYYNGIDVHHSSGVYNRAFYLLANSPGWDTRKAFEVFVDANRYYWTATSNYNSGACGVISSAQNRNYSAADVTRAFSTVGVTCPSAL

For the compound `O=C(CC(=O)Nc1ccc(Cl)c(Cl)c1)NO` [Compound 2], on LasB [1], the half-inhibitory concentration (IC50) is 17.4 µM.
With `Cl.O=C(O)CCP(CCC(=O)O)CCC(=O)O` [TCEP, Tris(2-carboxyethyl)phosphine hydrochloride], the “activity of pure LasB” value on LasB [2] (0.6 mM TCEP and lower) is “no inhibition”; on LasB [2] (5 mM and […] TCEP), “completely lost”. For the same compound, in the data set with A549 cells, the “viability of A549 cells” value is listed as “no effect on cell viability”.
For `O=C(O)CC1(C(=O)NCc2nc3ccccc3s2)Cc2ccccc2C1` [Compound 1], the IC50 at LasB [1] was 0.159 µM.

A word on the IC50: it is the concentration needed to halve the response being measured.
